The assay addresses T1, CDK8/CycC (Homo sapiens, UniProt P49336).
T1 construct: purchased Invitrogen PV4402
Kind of assay: FRET based Lanthascreen binding competition assay for CDK8 inhibitory activity. To be noted: CDK8 co-expressed with CycC, class symbols. The text has this: Biochemical Assay for CDK8 Inhibitory Activity FRET based Lanthascreen binding competition assay: A dye-labeled ATP competitive probe served as a FRET acceptor upon binding to CDK8 labeled with a strepavidin -Eu-chelate (via a biotinylated anti His antibody). The result was a fluorescence signal at 647 nm. In case this probe was competed by an inhibitor, such a signal cannot be generated any more. The CDK8 used for this assay was a protein co-expressed with CycC. The assay procedure for an assay in a 1536 well plate was performed according to the following: 2 μL CDK8/biotin-anti-His Ab/SA-Eu mix in Assay buffer were pipetted into the wells of a micro plate. 1 μL compound in 20 mM Hepes buffer/5% DMSO was added. The plate was shaken for 30 sec and incubated for 20 min at RT. 2 μL Alexa647-probe in assay buffer were added. The plate was shaken for 30 sec again and incubated for 60 min at RT in the dark. Then the plate was read out on a Perkin Elmer Envision (mode LANCE/TRF, excitation 340 nm emission 650 nm). […] The readouts were fitted to IC50 curves using Genedata Condoseo.

SMILES strings stand for the structures. Where two headings read alike, the source gives them in different places.

T1 sequence (P49336 whole entry): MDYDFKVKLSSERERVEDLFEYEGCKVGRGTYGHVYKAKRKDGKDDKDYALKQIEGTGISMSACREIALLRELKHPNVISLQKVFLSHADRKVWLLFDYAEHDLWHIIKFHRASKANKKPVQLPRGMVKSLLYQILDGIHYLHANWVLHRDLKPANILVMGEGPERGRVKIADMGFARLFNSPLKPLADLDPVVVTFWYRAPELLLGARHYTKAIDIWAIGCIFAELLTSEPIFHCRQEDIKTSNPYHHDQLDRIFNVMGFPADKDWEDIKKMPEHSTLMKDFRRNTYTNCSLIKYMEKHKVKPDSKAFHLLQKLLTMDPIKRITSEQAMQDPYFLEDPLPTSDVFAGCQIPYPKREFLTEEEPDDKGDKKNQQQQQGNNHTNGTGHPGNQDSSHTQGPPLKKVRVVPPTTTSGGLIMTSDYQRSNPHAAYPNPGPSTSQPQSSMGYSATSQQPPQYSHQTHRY
T1 sequence (P24863 whole entry partner): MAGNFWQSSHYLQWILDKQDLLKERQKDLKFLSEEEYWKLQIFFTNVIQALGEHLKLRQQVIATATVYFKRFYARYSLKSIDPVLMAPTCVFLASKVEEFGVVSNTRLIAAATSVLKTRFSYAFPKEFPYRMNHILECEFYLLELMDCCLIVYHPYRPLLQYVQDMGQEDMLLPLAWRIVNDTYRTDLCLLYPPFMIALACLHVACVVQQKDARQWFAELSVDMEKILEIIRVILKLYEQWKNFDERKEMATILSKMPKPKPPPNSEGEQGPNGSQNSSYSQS

What is called IC50 is the concentration that gives 50% inhibition. For the compound `Cc1ccc(C2CCCN2C(=O)c2cnc3[nH]nc(C)c3c2)cc1` (centres unmarked) [compound 62, (3-Methyl-1H-pyrazolo[3,4-b]pyridin-5-yl)-(2-p-tolyl-pyrrolidin-1-yl)-methanone], the IC50 (read-out: IC50) is under 0.01 µM.
Same read-out and setting: the result for `Cc1n[nH]c2ncc(C(=O)N3CCCC3c3ccc(C(F)(F)F)cc3)cc12` (centres unmarked) [compound 63, (3-Methyl-1H-pyrazolo[3,4-b]pyridin-5-yl)-[2-(4-trifluoromethyl-phenyl)-pyrrolidin-1-yl]-methanone] reads under 0.01 µM; that for `Cc1n[nH]c2ncc(C(=O)N3CCCC3c3ccccc3OCC(F)(F)F)cc12` (centres unmarked) [compound 65, (3-Methyl-1H-pyrazolo[3,4-b]pyridin-5-yl)-{2-[2-(2,2,2-trifluoro-ethoxy)-phenyl]-pyrrolidin-1-yl}-methanone], 0.1 to 1 µM.
Still for that read-out and setting: then `Cc1n[nH]c2ncc(C(=O)N3CCCC(c4ccccc4)C3)cc12` (centres unmarked) [compound 66, (3-Methyl-1H-pyrazolo[3,4-b]pyridin-5-yl)-(3-phenyl-piperidin-1-yl)-methanone], with 0.1 to 1 µM; and `Cc1n[nH]c2ncc(C(=O)N3CCCC(c4ccc(Cl)cc4)C3)cc12` (centres unmarked) [compound 67, [3-(4-Chloro-phenyl)-piperidin-1-yl]-(3-methyl-1H-pyrazolo[3,4-b]pyridin-5-yl)-methanone], with 0.01 to 0.1 µM.
Regarding `Cc1n[nH]c2ncc(C(=O)N3CCC(c4ccc(Cl)cc4)C3)cc12` (centres unmarked) [compound 68, [3-(4-Chloro-phenyl)-pyrrolidin-1-yl]-(3-methyl-1H-pyrazolo[3,4-b]pyridin-5-yl)-methanone], the IC50 (read-out: IC50) is under 0.01 µM.
Same read-out and setting: then `Cc1n[nH]c2ncc(C(=O)N3CCCC3c3ccc(Cl)c(F)c3)cc12` (centres unmarked) [compound 69, [2-(4-Chloro-3-fluoro-phenyl)-pyrrolidin-1-yl]-(3-methyl-1H-pyrazolo[3,4-b]pyridin-5-yl)-methanone], with 0.01 to 0.1 µM; and `O=C(c1cnc2[nH]nc(C3CC3)c2c1)N1CCCC1c1ccc(Cl)cc1` (centres unmarked) [compound 70, [2-(4-Chloro-phenyl)-pyrrolidin-1-yl]-(3-cyclopropyl-1H-pyrazolo[3,4-b]pyridin-5-yl)-methanone], with 0.01 to 0.1 µM; and `O=C(c1cnc2[nH]nc(C(F)(F)F)c2c1)N1CCCC1c1ccc(Cl)cc1` (centres unmarked) [compound 71, [2-(4-Chloro-phenyl)-pyrrolidin-1-yl]-(3-trifluoromethyl-1H-pyrazolo[3,4-b]pyridin-5-yl)-methanone], with 0.01 to 0.1 µM.
`Nc1n[nH]c2ccc(C(=O)N3CCCC3c3ccc(Br)cc3)cc12` (centres unmarked) [compound 74, (3-Amino-1H-indazol-5-yl)-[2-(4-bromo-phenyl)-pyrrolidin-1-yl]-methanone]: the IC50 (IC50 [μM]) was under 0.01 µM.
For the compound `Nc1n[nH]c2ccc(C(=O)N3CCC[C@H]3c3ccc(Br)cc3)cc12` [compound 76, (3-Amino-1H-indazol-5-yl)-[(S)-2-(4-bromo-phenyl)-pyrrolidin-1-yl]-methanone], the IC50 (IC50 [μM]) was under 0.01 µM.
For `Nc1n[nH]c2ccc(C(=O)N3CCC[C@@H]3c3ccc(Br)cc3)cc12` [compound 77, (3-Amino-1H-indazol-5-yl)-[(R)-2-(4-bromo-phenyl)-pyrrolidin-1-yl]-methanone], for the setting “IC50 [μM]”, the IC50 was in the range of 0.1 to 1 µM.
`Nc1n[nH]c2ccc(C(=O)N3CCC[C@H]3c3ccc(Cl)cc3)cc12` [compound 79, (3-Amino-1H-indazol-5-yl)-[(S)-2-(4-chloro-phenyl)-pyrrolidin-1-yl]-methanone] displayed an IC50 (IC50 [μM]) of under 0.01 µM.
Take `Nc1n[nH]c2ccc(C(=O)N3CCC[C@@H]3c3ccc(Cl)cc3)cc12` [compound 80, (3-amino-1H-indazol-5-yl)-[(R)-2-(4-chloro-phenyl)-pyrrolidin-1-yl]-methanone]: where the note is “IC50 [μM]”, the IC50 fell in the range of 0.1 to 1 µM.
Take `Nc1n[nH]c2ccc(C(=O)N3CCCCC3Cc3ccccc3)cc12` (centres unmarked) [compound 81, (3-Amino-1H-indazol-5-yl)-(2-benzyl-piperidin-1-yl)-methanone]: the IC50 (read-out: IC50) is 0.1 to 1 µM.
Still for that read-out and setting: the result for `Nc1n[nH]c2ccc(C(=O)N3CCCCC3c3ccccc3)cc12` (centres unmarked) [compound 82, (3-Amino-1H-indazol-5-yl)-(2-phenyl-piperidin-1-yl)-methanone] reads 0.01 to 0.1 µM; that for `Nc1n[nH]c2ccc(C(=O)N3CCCC3c3ccccc3)cc12` (centres unmarked) [compound 83, (3-Amino-1H-indazol-5-yl)-(2-phenyl-pyrrolidin-1-yl)-methanone], 0.01 to 0.1 µM.
Same read-out and setting: the result for `Nc1n[nH]c2ccc(C(=O)N3CCC(c4ccccc4)C3)cc12` (centres unmarked) [compound 84, (3-Amino-1H-indazol-5-yl)-(3-phenyl-pyrrolidin-1-yl)-methanone] reads 0.1 to 1 µM.
Where the note is “IC50 [μM]”, `Nc1n[nH]c2ccc(C(=O)N3CCCC3c3ccc(F)cc3)cc12` (centres unmarked) [compound 85, (3-Amino-1H-indazol-5-yl)-[2-(4-fluoro-phenyl)-pyrrolidin-1-yl]-methanone] displayed a 50% inhibitory concentration (IC50) of under 0.01 µM.
Turning to `Nc1n[nH]c2ccc(C(=O)N3CC[C@H](c4ccccc4)C3)cc12` [compound 87, (3-Amino-1H-indazol-5-yl)-((R)-3-phenyl-pyrrolidin-1-yl)-methanone], the IC50 (read-out: IC50) was 0.1 to 1 µM.
Turning to `Nc1n[nH]c2ccc(C(=O)N3CC[C@@H](c4ccccc4)C3)cc12` [compound 88, (3-Amino-1H-indazol-5-yl)-((S)-3-phenyl-pyrrolidin-1-yl)-methanone], the IC50 (read-out: IC50) was 0.1 to 1 µM.
As for `Nc1n[nH]c2ccc(C(=O)N3CCC[C@@H]3c3ccccc3)cc12` [compound 91], under “read-out: IC50”, the IC50 lay in the range of 0.01 to 0.1 µM.
For `Nc1n[nH]c2ccc(C(=O)N3CCCC[C@H]3c3ccc(F)cc3)cc12` [compound 92, (3-Amino-1H-indazol-5-yl)-[(S)-2-(4-fluoro-phenyl)-piperidin-1-yl]-methanone], the half-maximal inhibitory concentration (IC50) (IC50 [μM]) lay in the range of 0.01 to 0.1 µM.
`Nc1n[nH]c2ncc(C(=O)N3CCC[C@H]3c3ccc(Cl)cc3)cc12` [compound 96, (3-Amino-1H-pyrazolo[3,4-b]pyridin-5-yl)-[(S)-2-(4-chloro-phenyl)-pyrrolidin-1-yl]-methanone]: the IC50 (read-out: IC50) fell in the range of 0.01 to 0.1 µM.
The same measure, in the same setting: then `Nc1n[nH]c2ncc(C(=O)N3CCC[C@H]3c3ccc(Br)cc3)cc12` [compound 98, (3-Amino-1H-pyrazolo[3,4-b]pyridin-5-yl)-[(S)-2-(4-bromo-phenyl)-pyrrolidin-1-yl]-methanone], with 0.01 to 0.1 µM; and `Nc1n[nH]c2ccc(C(=O)N3CCC3c3ccc(Cl)cc3)cc12` (centres unmarked) [compound 104, (3-Amino-1H-indazol-5-yl)-[2-(4-chloro-phenyl)-azetidin-1-yl]-methanone], with 0.01 to 0.1 µM.
In turn, `Nc1n[nH]c2ccc(C(=O)N3CCC3c3ccc(F)cc3)cc12` (centres unmarked) [compound 105, (3-Amino-1H-indazol-5-yl)-[2-(4-fluoro-phenyl)-azetidin-1-yl]-methanone] showed an IC50 (IC50 [μM]) of 0.01 to 0.1 µM.
For `Nc1n[nH]c2ccc(C(=O)N3CCCCCC3c3ccc(Cl)cc3)cc12` (centres unmarked) [compound 106, (3-Amino-1H-indazol-5-yl)-[2-(4-chloro-phenyl)-azepan-1-yl]-methanone], under “read-out: IC50”, the IC50 was 0.1 to 1 µM.
Regarding `Nc1n[nH]c2ccc(C(=O)N3CCCCCC3c3cccc(F)c3)cc12` (centres unmarked) [compound 107, (3-Amino-1H-indazol-5-yl)-[2-(3-fluoro-phenyl)-azepan-1-yl]-methanone], under “read-out: IC50”, the IC50 lay within 0.1 to 1 µM.
On the same count and under the same terms, the result for `Nc1n[nH]c2ccc(C(=O)N3CCCC3c3ccc(C(F)(F)F)cc3)cc12` (centres unmarked) [compound 112, (3-Amino-1H-indazol-5-yl)-[2-(4-trifluoromethyl-phenyl)-pyrrolidin-1-yl]-methanone] reads 0.01 to 0.1 µM; that for `CCOc1ccccc1C1CCCN1C(=O)c1ccc2[nH]nc(N)c2c1` (centres unmarked) [compound 113, (3-Amino-1H-indazol-5-yl)-[2-(2-ethoxy-phenyl)-pyrrolidin-1-yl]-methanone], 0.1 to 1 µM.
On the same count and under the same terms, then `Nc1n[nH]c2ccc(C(=O)N3CCCC3c3ccccc3OCC(F)(F)F)cc12` (centres unmarked) [compound 114, (3-Amino-1H-indazol-5-yl)-{2-[2-(2,2,2-trifluoro-ethoxy)-phenyl]-pyrrolidin-1-yl}-methanone], with 0.1 to 1 µM.
With `Nc1n[nH]c2ccc(C(=O)N3CCCC(c4ccccc4)C3)cc12` (centres unmarked) [compound 115], the IC50 (read-out: IC50) was in the range of 0.1 to 1 µM.
In the case of `Nc1n[nH]c2ccc(C(=O)N3CCCC(c4ccc(Cl)cc4)C3)cc12` (centres unmarked) [compound 116, (3-Amino-1H-indazol-5-yl)-[3-(4-chloro-phenyl)-piperidin-1-yl]-methanone], under “read-out: IC50”, the IC50 is 0.1 to 1 µM.
In the case of `Nc1n[nH]c2ccc(C(=O)N3CCC(c4ccc(Cl)cc4)C3)cc12` (centres unmarked) [compound 117, (3-Amino-1H-indazol-5-yl)-[3-(4-chloro-phenyl)-pyrrolidin-1-yl]-methanone], the IC50 (IC50 [μM]) fell in the range of 0.01 to 0.1 µM.
The same measure, in the same setting: then `Nc1n[nH]c2ccc(C(=O)N3CCC[C@@H]3c3ccc(F)cc3)cc12` [compound 120, (3-Amino-1H-indazol-5-yl)-[(R)-2-(4-fluoro-phenyl)-pyrrolidin-1-yl]-methanone], with 0.1 to 1 µM.
Regarding `Cc1n[nH]c2ncc(C(=O)N3CCC[C@H]3c3ccncc3)cc12` [compound 122, (3-Methyl-1H-pyrazolo[3,4-b]pyridin-5-yl)-((S)-2-pyridin-4-yl-pyrrolidin-1-yl)-methanone], where the note is “read-out: IC50”, the IC50 was 0.1 to 1 µM.
In the case of `Nc1n[nH]c2ccc(C(=O)N3CCC[C@H]3c3ccc(F)cc3)cc12` [compound 124, (3-Amino-1H-indazol-5-yl)-[(S)-2-(4-fluoro-phenyl)-pyrrolidin-1-yl]-methanone], the concentration for half-maximal inhibition (IC50) (IC50 [μM]) was in the range of 0.01 to 0.1 µM.

The record behind these values is US9862717B2 (Merck Patent GmbH, priority 2014, dated 2018).
